Experimental data as given in patent US6251882A, “Alkyl ketones as potent anti-cancer agents” (Parker Hughes Institute, priority 1999, dated 2001).
Residues, ends and D or L forms follow the SMILES beside them. *: point of attachment. Farnesyl = CC(C)=CCC/C(C)=C/CC/C(C)=C/C*; Boc = CC(C)(C)OC(=O)*; CH2Cl = ClC*

How the values were obtained:
Nalm-6 (B-lineage ALL) = experiment: MTT cytotoxicity assay, Nalm-6; assay type: cell-based; details: Homo sapiens, 24-36 hours at 37° C., 0.1 to 250 μM
Description: (§1) Cytotoxicity of various compounds against tumor cells was performed using the MTT (3-[4,5-[…]]-2,5-diphenyl tetrazolium bromide) assay (Boehringer Mannheim Corp., Indianapolis, Ind.). Unless otherwise specified, all cell lines were obtained from the American Type Culture Collection (ATCC). Briefly, exponentially growing cells were seeded into a 96-well plate at a density of 2.5×10^4 cells/well and incubated for 36 hours at 37° C. prior to drug exposure. On the day of treatment, culture medium was carefully aspirated from the wells and replaced with fresh medium containing the indicated compound at concentrations ranging from 0.1 to 250 μM. Triplicate wells were used for each treatment.
(§2) Human leukemic cell lines (NALM-6, MOLT-3) glioblastoma cells (U373) and human breast tumor cell lines (BT20 and MDA-MB-231) were obtained from the American Type Culture Collection and maintained as a continuous cell line in Dulbecco's modified Eagles's medium supplemented with 10% fetal bovine serum and antibiotics.
(§3) The cells were incubated with the various compounds for 24-36 hours at 37° C. in a humidified 5% CO2 atmosphere. To each well, 10 μl of MTT (0.5 mg/ml final concentration) was added and the plates were incubated at 37° C. for 4 hours to allow MTT to form formazan crystals by reacting with metabolically active cells. The formazan crystals were solubilized overnight at 37° C. in a solution containing 10% SDS in 0.01 M HCl. The absorbence of each well was measured in a microplate reader (Labsystems) at 540 nm and a reference wavelength of […]. To translate the OD540 values into the number of live cells in each well, the OD540 values were compared to those on standard OD540 --versus--cell number curves generated for each cell line. The percent survival was calculated using the formula: [formula]
(§4) The IC50 values were calculated by non-linear regression analysis and are shown below in Tables 1-6.

Molt-3 (T-lineage ALL) = experiment: MTT cytotoxicity assay, Molt-3; assay type: cell-based, human; details: Homo sapiens, MOLT-3, MTT, 24-36 hours at 37° C., 0.1 to 250 μM
Description: as §1, §2, §3, §4

BT-20 (breast cancer) = experiment: MTT cytotoxicity assay, BT-20; assay type: cell-based; details: Homo sapiens, 24-36 hours at 37° C., 0.1 to 250 μM
Description: as §1, §2, §3, §4

PC-3 (prostate cancer) = experiment: MTT cytotoxicity assay, PC-3; assay type: cell-based; details: 24-36 hours at 37° C., 0.1 to 250 μM
Description: as §1, §3, §4

U-373 (glioblastoma) = experiment: MTT cytotoxicity assay, U-373; assay type: cell-based; details: Homo sapiens, U373 MG, 24-36 hours at 37° C., 0.1 to 250 μM
Description: as §1, §2, §3, §4

SMILES	IC50 (Nalm-6 (B-lineage ALL))	IC50 (Molt-3 (T-lineage ALL))	IC50 (BT-20 (breast cancer))	IC50 (PC-3 (prostate cancer))	IC50 (U-373 (glioblastoma))
COc1ccc(CSC[C@H](NC(C)=O)C(=O)CCl)cc1 [HI-351, N-Ac-S-4-methoxybenzyl-cysteine chloromethyl ketone]	60.2 µM	4.75 µM	73.1 µM	43.8 µM	45.6 µM
CCCCCCCCCCCCSC[C@H](NC(=O)OCC)C(=O)CCl [HI-319]	77.6 µM	84.2 µM	> 100 µM	> 100 µM	> 100 µM
CCCCCCCCCCCCSC[C@H](NC(C)=O)C(=O)CSC(c1ccccc1)(c1ccccc1)c1ccccc1 [HI-365]	93.1 µM	97.3 µM	> 100 µM	> 100 µM	> 100 µM
CC(=O)N[C@@H](CSC(C)(C)C)C(=O)CCl [HI-349, N-Ac-S-t-butyl-cysteine chloromethyl ketone]	71 µM	71.9 µM	> 100 µM	> 100 µM	> 100 µM
CC(C)=CCC/C(C)=C/CC/C(C)=C/CSC[C@H](NC(=O)CNC(=O)OC(C)(C)C)C(=O)CCl [HI-130, N-Boc-Gly-S-trans-trans-farnesyl-Cys chloromethyl ketone] (Boc-Gly-Cys(Farnesyl)-CH2Cl)	12.9 µM	17.5 µM	> 100 µM	> 100 µM	71.3 µM
CCCCCCCCCCCCSC[C@H](NC(=O)OCc1ccccc1)C(=O)CCl [HI-320, N-Benzyloxycarbonyl-S-dodecylcysteine chloromethyl ketone]	13.5 µM	> 100 µM	> 100 µM	> 100 µM	> 100 µM
CC(C)=CCC/C(C)=C/CC/C(C)=C/CSC[C@H](NC(=O)OC(C)(C)C)C(=O)C=[N+]=[N-] [HI-82, N-Boc-S-farnesyl-Cys diazomethyl ketone]	49.8 µM	50.1 µM	> 100 µM	> 100 µM	> 100 µM
C=CCSC[C@H](NC(C)=O)C(=O)CCl [HI-419, N-Ac-S-allyl-cysteine chloromethyl ketone]	4.3 µM	7.3 µM	55.7 µM	> 100 µM	56.7 µM
